# In patent publication US20150164899A1, “INHIBITION OF ADAPTOR ASSOCIATED KINASE 1 FOR THE TREATMENT OF PAIN” (priority 2012, published 2015):
# Read-outs that look alike come from different tables or passages of the source.
# Assays:
# [1] = molecular target: T1, AAK1 (full length human) in transfected HEK293F cells (Homo sapiens, UniProt Q2M2I8); assay: HEK281 cell-based assay (phospho-mu2 Western blot); settings: HEK281 cell-based assay, read-out: CBA IC50
# T1 construct: expressed in transfected cells; host or cells: HEK293F
# T1 sequence (Q2M2I8 1-863 isoform Q2M2I8-2): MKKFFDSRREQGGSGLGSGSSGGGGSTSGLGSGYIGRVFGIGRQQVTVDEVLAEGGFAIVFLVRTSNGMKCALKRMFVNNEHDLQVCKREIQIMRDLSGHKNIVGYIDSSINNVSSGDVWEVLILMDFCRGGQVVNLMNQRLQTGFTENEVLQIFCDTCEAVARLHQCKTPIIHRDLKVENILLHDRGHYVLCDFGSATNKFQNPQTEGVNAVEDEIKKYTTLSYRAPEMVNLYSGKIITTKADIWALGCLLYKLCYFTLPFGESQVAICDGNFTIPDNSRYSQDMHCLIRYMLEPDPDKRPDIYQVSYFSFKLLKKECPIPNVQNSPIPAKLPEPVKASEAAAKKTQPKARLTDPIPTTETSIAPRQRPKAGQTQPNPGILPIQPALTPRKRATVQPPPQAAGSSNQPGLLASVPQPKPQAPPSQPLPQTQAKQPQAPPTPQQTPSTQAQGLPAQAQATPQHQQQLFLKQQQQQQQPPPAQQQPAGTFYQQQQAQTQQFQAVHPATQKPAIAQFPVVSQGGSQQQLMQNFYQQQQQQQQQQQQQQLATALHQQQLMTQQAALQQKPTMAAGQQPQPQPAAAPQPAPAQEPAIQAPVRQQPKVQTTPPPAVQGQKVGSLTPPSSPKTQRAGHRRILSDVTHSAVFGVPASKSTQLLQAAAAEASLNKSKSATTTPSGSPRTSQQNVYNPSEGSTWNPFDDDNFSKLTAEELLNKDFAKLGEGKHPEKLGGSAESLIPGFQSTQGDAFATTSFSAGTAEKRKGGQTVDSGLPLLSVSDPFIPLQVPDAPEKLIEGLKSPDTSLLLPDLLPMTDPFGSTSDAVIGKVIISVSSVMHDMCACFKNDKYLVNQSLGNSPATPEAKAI
# Method: HEK293F cells were cultured in media containing DMEM (Gibco, cat. #11965), 10% FBS (SAFC Biosciences, cat. #12103C), 1×GPS (glutamine, penicillin and streptomycin). On day one, cells were plated on a 10 cm dish so that they are ˜80% confluent at time of transfection. Roughly 12 million cells were in a 10 cm dish at time of transfection. On day two, each dish was transfected with 48 ug DNA and 144 ul Lipofectamine 2000 (Invitrogen, cat.#11668-019). The DNA was comprised of a mixture (per 10 cm dish) containing 3 ug AAK1/HA/pIRES (full length human, NCBI accession no. NP_055726.2), 45 μg Flag/AP2MI/pcDNA (full length human), and 1.5 ml OPTI-MEM. The Lipofectamine 2000 is made up of a mixture (per 10 cm dish) containing 144 μl Lipofectamine 2000 and 1.5 ml OPTI-MEM. Each mixture was transferred to individual 15 ml tubes and incubated at RT for 5 minutes, and then the two mixes were combined and incubated at RT for 20 minutes. Growth media was then aspirated from each 10 cm plate and replaced with 10 ml of DMEM+10% FBS (no GPS). Finally, 3 ml DNA/Lipofectamine mix was added to each 10 cm dish and mix gently followed by incubate of plate overnight at 37° C. and 5% CO2.
# On day three, compounds were diluted in 100% DMSO at 1000× final concentration, followed by 3-fold serial dilutions for a total of 5 concentrations tested. Four compounds were tested per 10 cm dish. One ul of each compound dilution was then pipetted into a deep-well, 96-well plate, followed by addition of 500 μl DMEM+0.5% FBS into each well for a 2× final concentration of each compound. Cells were resuspended in a 10 cm dish by simple pipetting (HEK293 cells come off the plate that easy at this point) and then transferred to a 50 ml conical tube and pelleted by centrifugation at 1000 rpm for 5 min. Cell pellets were then resuspended in 2.75 ml DMEM+0.5% FBS per 10 cm dish and 100 μl of cell suspension transferred into each well of 96-well TC plate. Finally, 100 μl of 2× compound diluted in DMEM+0.5% FBS was then added into wells containing cell suspension for a 1× final concentration. Plates were then incubated at 37° C. and 5% CO2 for 3 hours followed by transferring of cell suspensions from each well into 12-tube PCR strips. The PCR strips were spun in a tip rack at 1000 rpm for 5 minutes to pellet cells and media was then removed by pipetting without disturbing the cell pellet.
# To prepare for Western Blot analysis, cell pellets were resuspend in 40 ul 1×LDS-PAGE sample buffer (Invitrogen, cat.# NP0008)+2× Halt phophatase and protease inhibitor cocktail (Thermo Scientific, cat.#1861284), followed by sonicating each with microtip sonicator set at 5 for 8-10 seconds. Five ul of 10× NuPage Sample Reducing Agent (with […]) was to each sample followed by heat denaturing at 70 C. for 10 min on PCR machine. A total of 10 μl per sample was loaded into each lane of a 4-20% Tris-Glycine Criterion 26-well gel (Biorad, cat.#345-0034) for the phospho-mu2 blot and 10 μl per lane in a 4-12% Bis-Tris (+MES buffer) NuPAGE 26-well gel (Invitrogen, cat.# WG1403BX10) for the mu2 blot. For controls, 2 ng of phospho-mu2 or 20 ng mu2/Flag proteins were loaded in the last well of each gel. After SDS-PAGE, samples on each gel were transferred to PVDF membrane using an iBlot and membranes were blocked for one hour in TBST+5% milk, followed by wash 3× for 5-10 min with TBST. Criterion gels were probed with rabbit anti-phospho-mu2 (1:5000; a rabbit polyclonal antibody produced by New England Peptide and affinity purified at Lexicon) in TBST+5% BSA, whereas, NuPAGE gels were probed with mouse anti-Flag (1:500; Sigma, cat.# F1804) in TBST+5% milk, and these primary antibodies were incubated overnight at 4° C. on a rocker.
# [2] = molecular target: T2, AAK1 (full-length human protein) (Homo sapiens, UniProt Q2M2I8); assay: P81 filter plate assay; format: biochemical
# T2 construct: NP_055726.2
# T2 sequence (Q2M2I8 1-863 isoform Q2M2I8-2): as above
# Method: Compounds were serially diluted into a Labcyte LDV plate (Labcyte, cat# LP-0200) using a Mutiprobe (PerkinElmer) and Biomek FX (Beckman Coulter) so that the highest compound concentration was at 96 μM. Compounds were then pinged (75 nL per well) into a Greiner 384-well reaction plate (Greiner, #781076) using an ECHO 550 Liquid Handler (Labcyte). A total of 12 μl reaction buffer (IMAP buffer containing Tween and DTT, from Molecular Devices) was then added to each well of columns 1 and 13 for the negative controls and 12 μl of 2×AAK1 (0.2 nM full-length human protein, NCBI accession no. NP_055726.2) was added to the remaining wells. Enzyme was then pre-incubated with compound for 10 minutes at RT. Reactions were initiated upon Minitrak (PerkinElmer) addition of 12 μl substrate mix containing 2× Mu2 (0.2 μM, full length human protein), 2× cold ATP (2 μM), and 1.3 μCi of hot ^33P-ATP. Reactions proceeded for one hour at RT. Meanwhile, Millipore 384-well P81 filter plates (Millipore, catalog # MZPHN0W10) were placed on a plate washer (Zoom Z W, from Titertek) and pre-wet with 50 μl 1% phosphoric acid. Kinase reactions were then stopped upon addition of 24 μl of 2% phosphoric acid to each well and the Minitrak was then used to transfer 40 μl from each well into the pre-wet Millipore 384-well P81 filter plates. Reaction mixtures were incubated for 10 minutes at RT in the P81 plates, followed by washing five times with 100 μl/well of 1% phosphoric acid using the Zoom filter washer. The bottom of each filter plate was sealed followed by addition of 20 μl Microscint 40 to each well, sealing the top of the plates with Flashplate cover, and then waiting one hour until reading on the TopCount (PerkinElmer).
# [3] = pyrazolo[1,5-a]pyrimidine-based inhibitors
# [4] = Table 1 imidazo[1,2-b]pyridazines
Compound,"IC50 [1, 3]","IC50 [2, 3]","IC50 [1, 4]","IC50 [2, 4]"
COc1ncccc1-c1cnn2ccc(NCCCC(F)(F)F)nc12,≤ 100 nM,≤ 10 nM,,
FC(F)(F)CN1CCCC1CNc1ccn2ncc(Br)c2n1 (stereo not drawn),≤ 100 nM,≤ 10 nM,,
COc1ccccc1-c1cnn2ccc(NC[C@@H]3CCCN3C(=O)CC(C)(C)C)nc12,≤ 10 nM,≤ 10 nM,,
CCCC(=O)N1CCC[C@H]1CNc1ccn2ncc(-c3ccccc3OC)c2n1,≤ 100 nM,≤ 10 nM,,
CCOc1ccccc1-c1cnn2ccc(NC[C@@H]3CCC(=O)N3CCC(C)(C)C)nc12,≤ 100 nM,≤ 10 nM,,
COc1ccccc1-c1cnn2ccc(NC[C@@H]3CCC(=O)N3CCC(C)(C)C)nc12,≤ 10 nM,≤ 10 nM,,
COc1ccccc1-c1cnc2ccc(NC[C@@H]3CCC(=O)N3CCC(C)(C)C)nn12,,,≤ 1000 nM,≤ 10 nM
COc1ncccc1-c1cnn2ccc(NC[C@@H]3CCC(=O)N3CCC(C)(C)C)nc12,≤ 100 nM,≤ 10 nM,,
COc1cnccc1-c1cnn2ccc(NC[C@@H]3CCC(=O)N3CCC(C)(C)C)nc12,≤ 100 nM,≤ 10 nM,,
CC(C)(C)NC(=O)N1CCC[C@H]1CNc1ccn2ncc(Br)c2n1,≤ 10 nM,≤ 10 nM,,
COc1ccccc1-c1cnn2ccc(NC[C@@H]3CCCN3C(=O)CC(F)(F)F)nc12,≤ 100 nM,≤ 10 nM,,
O=C(CC(F)(F)F)N1CCC[C@H]1CNc1ccn2ncc(-c3ccncc3)c2n1,≤ 100 nM,≤ 10 nM,,
COc1ncccc1-c1cnn2ccc(N3CC[C@H](N(C)C(=O)CC(F)(F)F)C3)nc12,≤ 10 nM,≤ 10 nM,,
CN(C(=O)CC(F)(F)F)[C@H]1CCN(c2ccn3ncc(-c4ccccn4)c3n2)C1,≤ 10 nM,≤ 10 nM,,
CC(C)(C)CCN1C(=O)CC[C@H]1CNc1ccn2ncc(Br)c2n1,≤ 100 nM,≤ 10 nM,,
CN(C(=O)CC(C)(C)C)[C@H]1CCN(c2ccc3ncc(-c4cccnc4O)n3n2)C1,,,≤ 1000 nM,≤ 100 nM

Compound,"IC50 [1, 3]","IC50 [2, 3]","IC50 [1, 4]","IC50 [2, 4]"
CCCC(=O)N(C)[C@H]1CCN(c2ccn3ncc(-c4ccccc4OC)c3n2)C1,≤ 1000 nM,≤ 10 nM,,
COc1ccccc1-c1cnn2ccc(NC[C@@H]3CCCN3C(=O)OC(C)C)nc12,≤ 10 nM,≤ 10 nM,,
COC(=O)N1CCC[C@H]1CNc1ccn2ncc(-c3ccccc3OC)c2n1,≤ 100 nM,≤ 10 nM,,
COCc1ccccc1-c1cnn2ccc(NC[C@@H]3CCCN3C(=O)OC(C)(C)C)nc12,≤ 100 nM,≤ 10 nM,,
CC(C)(C)OC(=O)N1CCC[C@H]1CNc1ccn2ncc(-c3ccccc3O)c2n1,≤ 100 nM,≤ 10 nM,,
CC(C)Oc1ccccc1-c1cnn2ccc(NC[C@@H]3CCCN3C(=O)OC(C)(C)C)nc12,≤ 10 nM,≤ 10 nM,,
COc1ccccc1-c1cnn2ccc(N3CC[C@H](N(C)C(=O)OC(C)(C)C)C3)nc12,≤ 100 nM,≤ 10 nM,,
Cc1cc(-c2cnn3ccc(N4CC[C@H](N(C)C(=O)OC(C)(C)C)C4)nc23)ccn1,≤ 100 nM,≤ 10 nM,,
COc1ncccc1-c1cnn2ccc(C3=CCN(C(=O)OC(C)C)CC3)nc12,≤ 10 nM,≤ 10 nM,,
COc1cc(-c2cnn3ccc(N4CCN(C(=O)OC(C)C)CC4)nc23)c(OC)nn1,≤ 10 nM,≤ 10 nM,,
COc1ccc(-c2cnn3ccc(N4CCN(C(=O)OC(C)C)CC4)nc23)nc1,≤ 10 nM,≤ 10 nM,,
COc1cncc(-c2cnn3ccc(N4CCN(C(=O)OC(C)C)CC4)nc23)c1,≤ 100 nM,≤ 10 nM,,
COc1ccc(-c2cnn3ccc(N4CCN(C(=O)OC(C)C)CC4)nc23)cn1,≤ 1000 nM,≤ 10 nM,,
CC(C)OC(=O)N1CCN(c2ccn3ncc(-c4ccccn4)c3n2)CC1,≤ 100 nM,≤ 10 nM,,
CC(C)OC(=O)N1CCN(c2ccn3ncc(-c4ccncc4)c3n2)CC1,≤ 100 nM,≤ 10 nM,,

# More lines, now with the values ahead:
"IC50 [1, 3]","IC50 [2, 3]","IC50 [1, 4]","IC50 [2, 4]",Compound
≤ 10 nM,≤ 10 nM,,,COc1ncccc1-c1cnn2ccc(N3CCN(C(=O)OCCF)CC3)nc12
≤ 100 nM,≤ 10 nM,,,COc1ncccc1-c1cnn2ccc(N3CCN(C(=O)NC(C)(C)C)CC3)nc12
≤ 100 nM,≤ 10 nM,,,COc1ncccc1-c1cnn2ccc(N3CCN(C(=O)N(C)C(C)(C)C)CC3)nc12
≤ 100 nM,≤ 10 nM,,,COc1ncccc1-c1cnn2ccc(N3CCN(C(=O)N(C)C(C)C)CC3)nc12
≤ 10 nM,≤ 10 nM,,,COc1ncccc1-c1cnn2ccc(N3CCN(C(=O)NC(C)C)CC3)nc12
≤ 100 nM,≤ 10 nM,,,COc1ncccc1-c1cnn2ccc(N3CCN(C(=O)N4CCCC4)CC3)nc12
≤ 1000 nM,≤ 10 nM,,,CCCC(=O)N(C)[C@H]1CCN(c2ccn3ncc(-c4cccnc4OC)c3n2)C1
≤ 10 nM,≤ 10 nM,,,COc1ncccc1-c1cnn2ccc(N3CCN(C(=O)OC4CCCC4)CC3)nc12
≤ 10 nM,≤ 10 nM,,,CCOC(=O)N1CCN(c2ccn3ncc(-c4cccnc4OCC)c3n2)CC1
≤ 100 nM,≤ 10 nM,,,CCOC(=O)N1CCN(c2ccn3ncc(-c4cccnc4OC)c3n2)CC1
≤ 1000 nM,≤ 100 nM,,,CC(C)OC(=O)N1CCN(c2ccn3ncc(-c4cccnc4Cl)c3n2)CC1
≤ 100 nM,≤ 10 nM,,,CC(C)OC(=O)N1CCN(c2ccn3ncc(-c4cccnc4O)c3n2)CC1
≤ 100 nM,≤ 10 nM,,,CC(C)OC(=O)N1CCN(c2ccn3ncc(-c4cccnc4OC(C)C)c3n2)CC1
≤ 10 nM,≤ 10 nM,,,COc1ncccc1-c1cnn2ccc(N3CCN(C(=O)OC(C)C)CC3=O)nc12
≤ 10 nM,≤ 10 nM,,,COc1ccc(-c2cnn3ccc(N4CCN(C(=O)OC(C)C)CC4)nc23)c(OC)n1
≤ 100 nM,≤ 10 nM,,,COc1ccncc1-c1cnn2ccc(N3CCN(C(=O)OC(C)C)CC3)nc12
≤ 100 nM,≤ 100 nM,,,COC(=O)N1CCN(c2ccn3ncc(-c4cccnc4OC)c3n2)CC1
